The target in experiment [1] is T1, ~100 representative kinases (Homo sapiens, UniProt P55201).
T1 construct: Recombinant protein kinase domains with a concentration of 2 μM
T1 sequence (P55201 1-1214): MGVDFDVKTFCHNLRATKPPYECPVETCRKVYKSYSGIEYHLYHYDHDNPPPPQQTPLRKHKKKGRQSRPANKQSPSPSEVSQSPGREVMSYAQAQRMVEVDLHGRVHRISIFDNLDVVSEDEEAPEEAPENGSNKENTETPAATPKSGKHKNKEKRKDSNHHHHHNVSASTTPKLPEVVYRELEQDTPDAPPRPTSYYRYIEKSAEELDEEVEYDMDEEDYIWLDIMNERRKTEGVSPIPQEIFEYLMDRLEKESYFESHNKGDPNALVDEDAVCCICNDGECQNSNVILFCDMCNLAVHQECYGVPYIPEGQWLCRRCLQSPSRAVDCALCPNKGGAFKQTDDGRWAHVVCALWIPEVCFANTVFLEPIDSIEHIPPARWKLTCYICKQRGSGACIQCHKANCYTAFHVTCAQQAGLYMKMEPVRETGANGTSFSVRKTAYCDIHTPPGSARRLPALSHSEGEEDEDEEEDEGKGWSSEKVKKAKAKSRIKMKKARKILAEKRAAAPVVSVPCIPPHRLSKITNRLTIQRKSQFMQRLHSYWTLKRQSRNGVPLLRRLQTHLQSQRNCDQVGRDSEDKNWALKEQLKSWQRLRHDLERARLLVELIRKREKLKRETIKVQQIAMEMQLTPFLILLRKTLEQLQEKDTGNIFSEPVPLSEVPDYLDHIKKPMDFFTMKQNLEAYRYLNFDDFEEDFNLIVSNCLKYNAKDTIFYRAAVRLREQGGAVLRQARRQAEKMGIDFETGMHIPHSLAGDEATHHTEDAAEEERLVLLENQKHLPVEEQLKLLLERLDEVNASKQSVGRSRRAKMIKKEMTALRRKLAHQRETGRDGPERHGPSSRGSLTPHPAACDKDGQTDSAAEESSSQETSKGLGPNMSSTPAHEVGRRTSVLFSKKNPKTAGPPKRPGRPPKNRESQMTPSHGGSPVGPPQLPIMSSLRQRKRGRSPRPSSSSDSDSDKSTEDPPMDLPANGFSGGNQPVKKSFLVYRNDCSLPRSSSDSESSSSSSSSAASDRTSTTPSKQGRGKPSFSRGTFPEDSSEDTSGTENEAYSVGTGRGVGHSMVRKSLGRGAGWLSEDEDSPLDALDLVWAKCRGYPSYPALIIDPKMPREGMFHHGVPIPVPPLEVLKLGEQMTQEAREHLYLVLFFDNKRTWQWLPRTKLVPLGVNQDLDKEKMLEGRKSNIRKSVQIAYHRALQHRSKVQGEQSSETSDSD
The experiment in a line: DSF 100 kinase selectivity screen.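 Further: compound tested at 20 µM.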 The class given is binding. As to conditions: Protein BRPF1; average of three replicates. The gist of the method:
(§1)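 Each kinase domain, at 2 μM, is mixed with 20 μM test compound and SYPRO Orange in Hepes (20 mM, pH 7.5) with 500 mM NaCl. Temperature is then raised at 3°C/min and fluorescence-monitored unfolding yields the melting temperature change, ΔTm in degrees Celsius.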

In experiment [2] the target is T2, ~100 representative kinases (Homo sapiens, UniProt P54753).
T2 construct: Recombinant protein kinase domains with a concentration of 2 μM
T2 sequence (P54753 34-998): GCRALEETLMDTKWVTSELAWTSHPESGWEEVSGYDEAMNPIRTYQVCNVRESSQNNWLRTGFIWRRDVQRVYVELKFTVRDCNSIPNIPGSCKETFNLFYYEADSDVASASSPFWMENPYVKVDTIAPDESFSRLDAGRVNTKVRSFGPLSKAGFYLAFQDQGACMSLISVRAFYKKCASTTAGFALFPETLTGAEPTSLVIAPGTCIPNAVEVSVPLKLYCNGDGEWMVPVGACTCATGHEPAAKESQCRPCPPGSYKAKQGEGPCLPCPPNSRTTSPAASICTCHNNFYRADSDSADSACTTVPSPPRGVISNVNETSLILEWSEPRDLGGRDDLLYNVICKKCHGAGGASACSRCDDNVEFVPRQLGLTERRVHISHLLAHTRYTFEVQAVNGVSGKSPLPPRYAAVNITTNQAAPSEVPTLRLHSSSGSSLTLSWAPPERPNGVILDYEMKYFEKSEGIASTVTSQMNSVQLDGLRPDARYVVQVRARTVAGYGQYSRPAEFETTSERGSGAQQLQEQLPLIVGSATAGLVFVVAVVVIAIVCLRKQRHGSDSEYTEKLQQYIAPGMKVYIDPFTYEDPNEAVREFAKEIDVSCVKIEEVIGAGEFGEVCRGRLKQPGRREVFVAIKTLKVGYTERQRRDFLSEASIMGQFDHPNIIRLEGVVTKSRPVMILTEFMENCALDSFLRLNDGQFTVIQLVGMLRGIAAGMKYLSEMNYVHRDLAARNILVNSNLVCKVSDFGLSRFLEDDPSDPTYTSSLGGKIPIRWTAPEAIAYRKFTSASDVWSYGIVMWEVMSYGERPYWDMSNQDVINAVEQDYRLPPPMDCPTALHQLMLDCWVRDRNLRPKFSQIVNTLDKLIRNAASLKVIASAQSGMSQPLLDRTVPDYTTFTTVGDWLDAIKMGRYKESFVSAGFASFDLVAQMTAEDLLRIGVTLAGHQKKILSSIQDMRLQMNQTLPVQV
Briefly: DSF 100 kinase selectivity screen.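 Further: compound tested at 20 µM.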 The format is binding. As to conditions: Protein EPHB3A; average of three replicates. The gist of the method: as §1

Take `CCNc1nc(Nc2cc(F)c(C(=O)N3CCOCC3)cc2OC)ncc1C(F)(F)F` [GNE-7915]: the dTm is -1.14 K in experiment [1] and 0.08 K in experiment [2].

Regarding `Cc1ccc(C(=O)Nc2ccc(CN3CCN(C)CC3)c(C(F)(F)F)c2)cc1C#Cc1cnc2[nH]ncc2c1` [GZD-824, reference compound], the dTm in experiment [1] was -0.65 K; in experiment [2], 15.76 K.

In the case of `C[C@@H]1CN(c2cc(-c3n[nH]c4ccc(OC5(C)CC5)cc34)ncn2)C[C@H](C)O1` [MLi2], the results for the dTm in experiment [1] and in experiment [2] were -1.36 K and 0.06 K, respectively.

With `Cn1cc(-c2c[nH]c3ncnc(N4CCOCC4)c23)cc1C#N` [PFE-360], the dTm was -1.30 K in experiment [1] and 0.07 K in experiment [2].

`CNC(=O)c1cc(Oc2ccc(NC(=O)Nc3cc(C(C)(C)C)nn3-c3ccc4ncccc4c3)c(F)c2)ccn1` [Rebastinib, reference compound]: the dTm was 1.88 K in experiment [1] and -2.84 K in experiment [2].

Source of the values: paper PMC12136037, “Type II kinase inhibitors that target Parkinson’s disease–associated LRRK2” (Science Advances, 2025).
